For one assay, the target named is T1, VEGF (Homo sapiens, UniProt P15692).
T1 sequence (P15692 207-395): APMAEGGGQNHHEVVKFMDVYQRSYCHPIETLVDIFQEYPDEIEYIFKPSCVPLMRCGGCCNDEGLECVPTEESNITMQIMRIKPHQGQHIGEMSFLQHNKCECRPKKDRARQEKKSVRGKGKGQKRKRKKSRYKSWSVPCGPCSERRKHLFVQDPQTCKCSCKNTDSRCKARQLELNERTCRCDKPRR
In words: Growth factor binding assay (SPR solution affinity), VEGF. The settings on record: HBS-EP buffer, 25° C. How it is done: (§1) Binding affinities of compounds for the growth factors FGF-1, FGF-2 and VEGF were measured using a surface plasmon resonance (SPR) based solution affinity assay.^9 Heparin-coated sensorchips used for this assay were prepared via immobilisation of biotinylated BSA-heparin on a streptavidin-coated sensorchip, or via aldehyde coupling using either adipic acid dihydrazide or 1,4-diaminobutane.^9 For each Kd measurement, solutions were prepared containing a fixed concentration of protein and varying concentrations of the ligand in buffer. Ligands binding to FGF-1 and VEGF were measured in HBS-EP buffer (10 mM HEPES, pH 7.4, 150 mM NaCl, 3.0 mM EDTA and 0.005% (v/v) polysorbate 20), while binding to FGF-2 was measured in HBS-EP buffer containing 0.3 M NaCl. Prior to injection, samples were maintained at 4° C. to maximise protein stability. For each assay mixture, 50-200 μL of solution was injected at 5-40 μL/min and the relative binding response measured. All surface binding experiments were performed at 25° C. The surface was regenerated by injection of 40 μL of 4M NaCl at 40 μL/min, followed by injection of 40 μL of buffer at 40 μL/min.
(§2) Sensorgram data were analysed using the BIAevaluation software (BIAcore) and Kd values determined as previously described.^9 Where Kd values were measured in duplicate, the values represent the average of the duplicate measurements.

Another assay deals with FGF-1 (Homo sapiens, UniProt P05230). In words: Growth factor binding assay (SPR solution affinity), FGF-1. To be noted: SPR, HBS-EP buffer, 25° C.; read-out: Kd FGF-1. How it is done: as §1, §2
Sequence of FGF-1 (P05230 whole entry, species assumed): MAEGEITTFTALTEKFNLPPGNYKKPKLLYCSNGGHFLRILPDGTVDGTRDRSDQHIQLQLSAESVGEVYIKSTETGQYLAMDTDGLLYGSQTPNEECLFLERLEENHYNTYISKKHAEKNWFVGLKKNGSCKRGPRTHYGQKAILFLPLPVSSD
Another assay addresses FGF-2 (Homo sapiens, UniProt P09038). In words: Growth factor binding assay (SPR solution affinity), FGF-2. To be noted: SPR, HBS-EP buffer containing 0.3 M NaCl, 25° C.; read-out: Kd FGF-2. How it is done: as §1, §2
The test system of assay [1] is pooled normal human plasma. In words: Anticoagulant activity, APTT. The settings on record: 0.1 mg/mL in normal pooled human plasma. The protocol: APTT measurements were performed on a STAGO STA-Compact Coagulation Analyser using standard protocols according to the manufacturer's instructions. Unfractionated heparin (UFH) was used as a control.
In assay [2] the test system is normal pooled human plasma. In words: Anticoagulant activity, Heptest. To be noted: 0.1 mg/mL in normal pooled human plasma.
In assay [3] the target is T2, recombinant human heparanase (Homo sapiens, UniProt Q9Y251).
T2 sequence (Q9Y251 158-543 limits assumed): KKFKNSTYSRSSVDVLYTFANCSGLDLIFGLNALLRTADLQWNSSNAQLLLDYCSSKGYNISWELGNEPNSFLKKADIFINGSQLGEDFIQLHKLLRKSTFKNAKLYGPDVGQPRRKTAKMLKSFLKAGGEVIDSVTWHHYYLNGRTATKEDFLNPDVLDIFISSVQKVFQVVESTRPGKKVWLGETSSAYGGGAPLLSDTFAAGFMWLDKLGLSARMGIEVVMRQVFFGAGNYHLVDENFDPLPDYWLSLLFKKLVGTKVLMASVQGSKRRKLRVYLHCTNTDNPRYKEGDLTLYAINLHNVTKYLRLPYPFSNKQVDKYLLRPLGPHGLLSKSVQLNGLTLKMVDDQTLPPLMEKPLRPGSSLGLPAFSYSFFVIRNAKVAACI
T2 sequence (Q9Y251 36-109 limits assumed): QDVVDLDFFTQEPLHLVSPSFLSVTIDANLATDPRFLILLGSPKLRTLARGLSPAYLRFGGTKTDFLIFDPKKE
In words: Heparanase inhibition assay (fondaparinux cleavage, WST-1). The settings on record: read-out: Ki Heparanase; IC50 converted into Ki; fondaparinux 100 μM, pH 5.0. (In general: Tetrazolium assays rely on reduction of a dye to a coloured formazan, in cell work by metabolically active cells.)
Procedure: In the presence of an inhibitor the catalytic activity of heparanase is reduced, and the amount of disaccharide produced and the optical density of the solution are both decreased. The percent inhibition and IC50 of the inhibitor are determined from measurement of the optical density (OD) over a range of inhibitor concentrations.
Assays were carried out in 40 mM sodium acetate buffer, pH 5.0, as follows. […] A blue colour was developed by incubation of the plates at 60° C. for 60 min. […] The IC50 value for each compound was evaluated and converted into a Ki (inhibition constant) using the expression

Counter-ions that a name gives are not always drawn.

Sequence of FGF-2 (P09038 143-288, species assumed): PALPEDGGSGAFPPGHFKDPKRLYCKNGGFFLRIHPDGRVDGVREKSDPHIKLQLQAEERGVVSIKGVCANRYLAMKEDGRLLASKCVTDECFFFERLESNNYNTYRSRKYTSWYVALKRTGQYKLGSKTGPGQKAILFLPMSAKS

What is called Kd is a measure of binding affinity in units of concentration. Take `CC(C)CCCC(C)C1CCC2C3CC=C4CC(OC5OC(COS(=O)(=O)O)C(OS(=O)(=O)O)C(OS(=O)(=O)O)C5OC5OC(COS(=O)(=O)O)C(OS(=O)(=O)O)C(OC6OC(COS(=O)(=O)O)C(OS(=O)(=O)O)C(OC7OC(COS(=O)(=O)O)C(OS(=O)(=O)O)C(OS(=O)(=O)O)C7OS(=O)(=O)O)C6OS(=O)(=O)O)C5OS(=O)(=O)O)CCC4(C)C3CCC12C` [Compound 17, 3β-Cholesteryl 2,3,4,6-tetra-O-sodium sulfonato-α-D-mannopyranosyl-(1→3)-2,4,6-tri-O-sodium sulfonato-α-D-mannopyranosyl-(1→3)-2,4,6-tri-O-sodium sulfonato-α-D-mannopyranosyl-(1→2)-3,4,6-tri-O-sodium sulfonato-α-D-mannopyranoside]: the results for the dissociation constant Kd on VEGF and on FGF-1 were 24 ± 6 nM and 3.2 ± 0.5 nM, respectively.

As usually defined, the Ki is a dissociation constant, usually derived from enzyme kinetics or from competition with a known ligand. For `CCCCCCCCCCCCCCCCCC(=O)NCCCOC1OC(COS(=O)(=O)O)C(OS(=O)(=O)O)C(OS(=O)(=O)O)C1OC1OC(COS(=O)(=O)O)C(OS(=O)(=O)O)C(OC2OC(COS(=O)(=O)O)C(OS(=O)(=O)O)C(OC3OC(COS(=O)(=O)O)C(OS(=O)(=O)O)C(OS(=O)(=O)O)C3OS(=O)(=O)O)C2OS(=O)(=O)O)C1OS(=O)(=O)O` [Compound 24, 3-Stearamidopropyl 2,3,4,6-tetra-O-sodium sulfonato-α-D-mannopyranosyl-(1→3)-2,4,6-tri-O-sodium sulfonato-α-D-mannopyranosyl-(1→3)-2,4,6-tri-O-sodium sulfonato-α-D-mannopyranosyl-(1→2)-3,4,6-tri-O-sodium sulfonato-α-D-mannopyranoside], the figures for the Kd on VEGF, at FGF-1 and at FGF-2 were 40 ± 17 nM, 0.44 ± 0.04 nM and 108 ± 11 nM, respectively. This molecule also showed an APTT in assay [1] of 68.1 s. Besides, the Heptest in assay [2] is listed as 24.5 s. In assay [3], the Ki came out at 6 ± 2.1 nM.

Regarding `CC(C)CCCC(C)C1CCC2C3CCC4CC(OC5OC(COS(=O)(=O)O)C(OS(=O)(=O)O)C(OS(=O)(=O)O)C5OC5OC(COS(=O)(=O)O)C(OS(=O)(=O)O)C(OC6OC(COS(=O)(=O)O)C(OS(=O)(=O)O)C(OC7OC(COS(=O)(=O)O)C(OS(=O)(=O)O)C(OC8OC(COS(=O)(=O)O)C(OS(=O)(=O)O)C(OS(=O)(=O)O)C8OS(=O)(=O)O)C7OS(=O)(=O)O)C6OS(=O)(=O)O)C5OS(=O)(=O)O)CCC4(C)C3CCC12C` [Compound 27, 3β-Cholestanyl 2,3,4,6-tetra-O-sodium sulfonato-α-D-mannopyranosyl-(1→3)-2,4,6-tri-O-sodium sulfonato-α-D-mannopyranosyl-(1→3)-2,4,6-tri-O-sodium sulfonato-α-D-mannopyranosyl-(1→3)-2,4,6-tri-O-sodium sulfonato-α-D-mannopyranosyl-(1→2)-3,4,6-tri-O-sodium sulfonato-α-D-mannopyranoside], the Kd on VEGF turned out to be 1.04 ± 0.19 nM; on FGF-1 it was 0.24 ± 0.1 nM; on FGF-2 it was 39 ± 6 nM. Besides, the APTT in assay [1] worked out at 63.3 s. Further, the Heptest in assay [2] is on record as 29.6 s. For the same molecule, the Ki in assay [3] is 5.5 ± 2.6 nM.

`CC(C)CCCC(C)C1CCC2C3CCC4CC(OC5OC(COS(=O)(=O)O)C(OS(=O)(=O)O)C(OS(=O)(=O)O)C5OC5OC(COS(=O)(=O)O)C(OS(=O)(=O)O)C(OC6OC(COS(=O)(=O)O)C(OS(=O)(=O)O)C(OS(=O)(=O)O)C6OS(=O)(=O)O)C5OS(=O)(=O)O)CCC4(C)C3CCC12C` [Compound 39, 3β-Cholestanyl 2,3,4,6-tetra-O-sodium sulfonato-α-D-mannopyranosyl-(1→3)-2,4,6-tri-O-sodium sulfonato-α-D-mannopyranosyl-(1→2)-3,4,6-tri-O-sodium sulfonato-α-D-mannopyranoside]: the Kd came out at 319 ± 19 nM on VEGF, 18.5 ± 1.8 nM on FGF-1 and 631 ± 4 nM on FGF-2. Besides, the APTT in assay [1] is recorded as 50.7 s. For the same molecule, the Heptest in assay [2] was determined as 27.3 s. In assay [3], the Ki was 6.4 ± 2.5 nM.

On to `CCCCCCCCCCCCCCCCCC(=O)NCCCOC1OC(COS(=O)(=O)O)C(OS(=O)(=O)O)C(OS(=O)(=O)O)C1OC1OC(COS(=O)(=O)O)C(OS(=O)(=O)O)C(OC2OC(COS(=O)(=O)O)C(OS(=O)(=O)O)C(OC3OC(COS(=O)(=O)O)C(OS(=O)(=O)O)C(OC4OC(COS(=O)(=O)O)C(OS(=O)(=O)O)C(OS(=O)(=O)O)C4OS(=O)(=O)O)C3OS(=O)(=O)O)C2OS(=O)(=O)O)C1OS(=O)(=O)O` [Compound 44, 3-Stearamidopropyl 2,3,4,6-tetra-O-sodium sulfonato-α-D-mannopyranosyl-(1→3)-2,4,6-tri-O-sodium sulfonato-α-D-mannopyranosyl-(1→3)-2,4,6-tri-O-sodium sulfonato-α-D-mannopyranosyl-(1→3)-2,4,6-tri-O-sodium sulfonato-α-D-mannopyranosyl-(1→2)-3,4,6-tri-O-sodium sulfonato-α-D-mannopyranoside], for which the values for the Kd on VEGF, on FGF-1 and at FGF-2 were 2.7 ± 0.5 nM, 0.17 ± 0.07 nM and 80 ± 40 nM, respectively. This molecule registered an APTT in assay [1] of 217.0 s. For the same molecule, the Heptest in assay [2] is 58.5 s. The Ki in assay [3] is 4.4 ± 1.4 nM.

For the molecule `CC(C)CCCC(C)C1CCC2C3CCC4CC(OC5OC(COC6OC(COS(=O)(=O)O)C(OC7OC(COS(=O)(=O)O)C(OC8OC(COS(=O)(=O)O)C(OS(=O)(=O)O)C(OS(=O)(=O)O)C8OS(=O)(=O)O)C(OS(=O)(=O)O)C7OS(=O)(=O)O)C(OS(=O)(=O)O)C6OS(=O)(=O)O)C(OS(=O)(=O)O)C(OS(=O)(=O)O)C5OS(=O)(=O)O)CCC4(C)C3CCC12C` [Compound 119, 3′-Cholestanyl 2,3,4,6-tetra-O-sulfo-α-D-glucopyranosyl-(1→4)-2,3,6-tri-O-sulfo-α-D-glucopyranosyl-(1→4)-2,3,6-tri-O-sulfo-β-D-glucopyranosyl-(1→6)-2,3,4-tri-O-sulfo-α-D-mannopyranoside, tridecasodium salt], the Kd at VEGF came to 7.9 ± 0.7 nM; on FGF-1 it was 5.9 ± 1.6 nM; at FGF-2 it was 286 ± 25 nM. This molecule also registered an APTT in assay [1] of 57.1 s. This molecule had a Heptest in assay [2] of 28.6 s.

For `CC(C)CCCC(C)C1CCC2C3CCC4CC(OCC(=O)NC5OC(COS(=O)(=O)O)C(OC6OC(COS(=O)(=O)O)C(OC7OC(COS(=O)(=O)O)C(OS(=O)(=O)O)C(OS(=O)(=O)O)C7OS(=O)(=O)O)C(OS(=O)(=O)O)C6OS(=O)(=O)O)C(OS(=O)(=O)O)C5OS(=O)(=O)O)CCC4(C)C3CCC12C` (stereo not shown) [Compound 134], the Kd on VEGF was found to be 1080 ± 200 nM; at FGF-1, 13 ± 3 nM; at FGF-2 it was 630 ± 30 nM.

Turning to `CC(C)CCCC(C)C1CCC2C3CCC4CC(OC(C(OS(=O)(=O)[O-])C(OS(=O)(=O)O)C(OC5OC(COS(=O)(=O)O)C(OC6OC(COS(=O)(=O)O)C(OC7OC(COS(=O)(=O)O)C(OS(=O)(=O)O)C(OS(=O)(=O)O)C7OS(=O)(=O)O)C(OS(=O)(=O)O)C6OS(=O)(=O)O)C(OS(=O)(=O)O)C5OS(=O)(=O)O)C(COS(=O)(=O)O)OS(=O)(=O)O)[n+]5ccccc5)CCC4(C)C3CCC12C` [Compound 140, 3′-Cholestanyl 2,3,4,6-tetra-O-sulfo-α-D-glucopyranosyl-(1→4)-2,3,6-tri-O-sulfo-α-D-glucopyranosyl-(1→4)-2,3,6-tri-O-sulfo-α-D-glucopyranosyl-(1→4)-((1-pyridinium-1-yl)-2,3,5,6-tetra-O-sulfo-D-glucoside, tridecasodium salt], the Kd on VEGF was 12 ± 2 nM; at FGF-1, 1.3 ± 0.6 nM; at FGF-2 it was 380 ± 40 nM.

The values above are taken from US20150065440A1 (Progen Pharmaceuticals Limited, priority 2007, published 2015).
